ChEMBL document CHEMBL3044631, “Synthesis of 2-[4,5-dimethyl-1-(phenylamino)-1H-imidazol-2-ylthio]-N-(thiazole-2-yl)acetamide derivatives and their anticancer activities” (2013)

Experiments:
Format in all cases: functional
[1] = test system: OVCAR-5; experiment: Anticancer activity against Homo sapiens (human) OVCAR5 cells assessed as cell growth promotion at 10 uM after 48 hr by SRB assay
[2] = test system: NCI-H226; experiment: Anticancer activity against Homo sapiens (human) NCI-H226 cells assessed as cell growth promotion at 10 uM after 48 hr by SRB assay
[3] = test system: SW-620; experiment: Anticancer activity against Homo sapiens (human) SW620 cells assessed as cell growth promotion at 10 uM after 48 hr by SRB assay
[4] = test system: NCI-H23; experiment: Anticancer activity against Homo sapiens (human) NCI-H23 cells assessed as cell growth promotion at 10 uM after 48 hr by SRB assay
[5] = test system: SR; experiment: Anticancer activity against Homo sapiens (human) SR cells assessed as cell growth promotion at 10 uM after 48 hr by SRB assay
[6] = test system: LOX IMVI; experiment: Anticancer activity against Homo sapiens (human) LOXIMVI cells assessed as cell growth promotion at 10 uM after 48 hr by SRB assay
[7] = test system: RXF 393; experiment: Anticancer activity against Homo sapiens (human) RXF393 cells assessed as cell growth promotion at 10 uM after 48 hr by SRB assay
[8] = test system: UO-31; experiment: Anticancer activity against Homo sapiens (human) UO31 cells assessed as cell growth promotion at 10 uM after 48 hr by SRB assay
[9] = test system: CCRF-CEM; experiment: Anticancer activity against Homo sapiens (human) CCRF-CEM cells assessed as cell growth promotion at 10 uM after 48 hr by SRB assay
[10] = test system: SNB-19; experiment: Anticancer activity against Homo sapiens (human) SNB19 cells assessed as cell growth promotion at 10 uM after 48 hr by SRB assay
[11] = test system: OVCAR-8; experiment: Anticancer activity against Homo sapiens (human) OVCAR8 cells assessed as cell growth promotion at 10 uM after 48 hr by SRB assay
[12] = test system: T47D; experiment: Anticancer activity against Homo sapiens (human) T47D cells assessed as cell growth promotion at 10 uM after 48 hr by SRB assay
[13] = test system: IGROV-1; experiment: Anticancer activity against Homo sapiens (human) IGROV1 cells assessed as cell growth promotion at 10 uM after 48 hr by SRB assay
[14] = test system: NCI-H322M; experiment: Anticancer activity against Homo sapiens (human) NCI-H322M cells assessed as cell growth promotion at 10 uM after 48 hr by SRB assay
[15] = test system: SNB-75; experiment: Anticancer activity against Homo sapiens (human) SNB75 cells assessed as cell growth promotion at 10 uM after 48 hr by SRB assay
[16] = test system: A498; experiment: Anticancer activity against Homo sapiens (human) A498 cells assessed as cell growth promotion at 10 uM after 48 hr by SRB assay
[17] = test system: SK-MEL-28; experiment: Anticancer activity against Homo sapiens (human) SK-MEL-28 cells assessed as cell growth promotion at 10 uM after 48 hr by SRB assay
[18] = test system: M14; experiment: Anticancer activity against Homo sapiens (human) M14 cells assessed as cell growth promotion at 10 uM after 48 hr by SRB assay
[19] = test system: BT-549; experiment: Anticancer activity against Homo sapiens (human) BT549 cells assessed as cell growth promotion at 10 uM after 48 hr by SRB assay
[20] = test system: U-251; experiment: Anticancer activity against Homo sapiens (human) U251 cells assessed as cell growth promotion at 10 uM after 48 hr by SRB assay
[21] = test system: SNB-19; experiment: Anticancer activity against Homo sapiens (human) SNB19 cells after 48 hr by SRB assay; settings: SNB-19, 48 h
[22] = test system: OVCAR-5; experiment: Anticancer activity against Homo sapiens (human) OVCAR5 cells after 48 hr by SRB assay; settings: OVCAR-5, 48 h
[23] = test system: NCI-H322M; experiment: Anticancer activity against Homo sapiens (human) NCI-H322M cells after 48 hr by SRB assay; settings: for CC50: read-out: LC50 (the source's name)
[24] = test system: IGROV-1; experiment: Anticancer activity against Homo sapiens (human) IGROV1 cells after 48 hr by SRB assay; settings: IGROV-1, 48 h
[25] = test system: HT-29; experiment: Anticancer activity against Homo sapiens (human) HT-29 cells after 48 hr by SRB assay; settings: HT-29, 48 h
[26] = test system: UACC-62; experiment: Anticancer activity against Homo sapiens (human) UACC62 cells after 48 hr by SRB assay; settings: UACC-62, 48 h
[27] = test system: SN12C; experiment: Anticancer activity against Homo sapiens (human) SN12C cells after 48 hr by SRB assay
[28] = test system: SW-620; experiment: Anticancer activity against Homo sapiens (human) SW620 cells after 48 hr by SRB assay; settings: SW-620, 48 h
[29] = test system: KM12; experiment: Anticancer activity against Homo sapiens (human) KM12 cells after 48 hr by SRB assay; settings: KM12, 48 h
[30] = test system: SF-295; experiment: Anticancer activity against Homo sapiens (human) SF295 cells after 48 hr by SRB assay; settings: SF-295, 48 h
[31] = test system: Hs-578T; experiment: Anticancer activity against Homo sapiens (human) Hs 578T cells after 48 hr by SRB assay; settings: for CC50: read-out: LC50 (the source's name)
[32] = test system: NCI-H23; experiment: Anticancer activity against Homo sapiens (human) NCI-H23 cells after 48 hr by SRB assay; settings: NCI-H23, 48 h; for CC50: read-out: LC50 (the source's name)
[33] = test system: U-251; experiment: Anticancer activity against Homo sapiens (human) U251 cells after 48 hr by SRB assay; settings: U-251, 48 h
[34] = test system: OVCAR-8; experiment: Anticancer activity against Homo sapiens (human) OVCAR8 cells after 48 hr by SRB assay; settings: OVCAR-8, 48 h; for CC50: read-out: LC50 (the source's name)
[35] = test system: NCI-H460; experiment: Anticancer activity against Homo sapiens (human) NCI-H460 cells after 48 hr by SRB assay; settings: NCI-H460, 48 h
[36] = test system: SK-MEL-2; experiment: Anticancer activity against Homo sapiens (human) SK-MEL-2 cells after 48 hr by SRB assay; settings: SK-MEL-2, 48 h

CCOC(=O)c1csc(NC(=O)CSc2nc(C)c(C)n2Nc2ccc(C)cc2)n1
Activity [1]: 74.57% | Activity [2]: 70.72% | Activity [3]: 98.75% | Activity [4]: 74.71% | Activity [5]: 87.01% | Activity [6]: 77.98% | Activity [7]: 38.47% | Activity [8]: 62.65% | Activity [9]: 24.68% | Activity [10]: 75.4% | Activity [11]: 82.64% | Activity [12]: 57.89% | Activity [13]: 95.15% | Activity [14]: 97.18% | Activity [15]: 83.76% | Activity [16]: 90.47% | Activity [17]: 80.17% | Activity [18]: 70.97% | Activity [19]: 91.44% | Activity [20]: 76.07%

COc1ccc(Nn2c(SCC(=O)Nc3nc(-c4ccc(Cl)cc4)cs3)nc(C)c2C)cc1
Activity [1]: 111.33% | GI50 [21]: 6.2 µM | LC50 [21]: > 100 µM | TGI [21]: > 100 µM | GI50 [22]: > 100 µM | LC50 [22]: > 100 µM | TGI [22]: > 100 µM | Activity [2]: 60.46% | Activity [3]: 75.2% | GI50 [23]: > 100 µM | TGI [23]: > 100 µM | CC50 [23]: > 100 µM | GI50 [24]: 5.67 µM | LC50 (concentration killing 50% of cells) [24]: > 100 µM | TGI [24]: > 100 µM | GI50 [25]: 4.61 µM | LC50 [25]: > 100 µM | TGI [25]: 50.4 µM | Activity [4]: 31.88% | GI50 [26]: 3.62 µM | LC50 [26]: > 100 µM | TGI [26]: > 100 µM | Activity [5]: 40.3% | Activity [6]: 38.91% | GI50 [27]: 2.3 µM | LC50 (concentration killing 50% of cells) [27]: > 100 µM | TGI [27]: 7.52 µM | Activity [8]: 39.41% | Activity [10]: 79.24% | GI50 [28]: 4.78 µM | LC50 (concentration killing 50% of cells) [28]: > 100 µM | TGI [28]: > 100 µM | Activity [11]: 43.88% | Activity [12]: 39.43% | Activity [13]: 70.85% | GI50 [29]: 1.84 µM | LC50 (concentration killing 50% of cells) [29]: > 100 µM | TGI [29]: 11.1 µM | GI50 [30]: 2.18 µM | LC50 [30]: > 100 µM | TGI [30]: > 100 µM | Activity [14]: 111.9% | Activity [15]: 56.63% | GI50 [31]: 11.8 µM | TGI [31]: > 100 µM | CC50 [31]: > 100 µM | Activity [16]: 69.49% | Activity [17]: 82.63% | Activity [18]: 62.46% | GI50 [32]: 1.53 µM | TGI [32]: > 100 µM | CC50 [32]: > 100 µM | GI50 [33]: 4.03 µM | LC50 (lethal concentration, 50% net cell kill) [33]: > 100 µM | TGI [33]: > 100 µM | GI50 [34]: 4.82 µM | TGI [34]: > 100 µM | CC50 [34]: > 100 µM | Activity [19]: 53.32% | Activity [20]: 43.51% | GI50 [35]: 2.69 µM | LC50 [35]: > 100 µM | TGI [35]: 10.6 µM | GI50 [36]: 15.7 µM | LC50 (concentration killing 50% of cells) [36]: > 100 µM | TGI [36]: 66.8 µM

Cc1nc(SCC(=O)Nc2nc(-c3ccc(Cl)cc3)cs2)n(Nc2ccccc2)c1C
Activity [1]: 65.75% | GI50 [21]: 9.41 µM | LC50 [21]: 61.7 µM | TGI [21]: 24.6 µM | GI50 [22]: 2.65 µM | LC50 [22]: 54.2 µM | TGI [22]: 13.5 µM | Activity [2]: 59.84% | Activity [3]: 73.1% | GI50 [23]: 4.17 µM | TGI [23]: 22.9 µM | CC50 [23]: > 100 µM | GI50 [24]: 3.36 µM | LC50 (concentration killing 50% of cells) [24]: > 100 µM | TGI [24]: 20.6 µM | GI50 [25]: 3.78 µM | LC50 [25]: 49.5 µM | TGI [25]: 15.4 µM | Activity [4]: 12.2% | GI50 [26]: 3.09 µM | LC50 [26]: 50.3 µM | TGI [26]: 16.1 µM | Activity [5]: 12.66% | Activity [6]: 26.08% | GI50 [27]: 2.38 µM | LC50 (concentration killing 50% of cells) [27]: 35.8 µM | TGI [27]: 10.1 µM | Activity [7]: 72.14% | Activity [8]: 32.86% | Activity [10]: 59.64% | GI50 [28]: 5.5 µM | LC50 (concentration killing 50% of cells) [28]: 74.6 µM | TGI [28]: 22.9 µM | Activity [11]: 31.91% | Activity [12]: 26.64% | Activity [13]: 68.44% | GI50 [29]: 2.95 µM | LC50 (concentration killing 50% of cells) [29]: 41.4 µM | TGI [29]: 14 µM | GI50 [30]: 2.29 µM | LC50 [30]: > 100 µM | TGI [30]: 16.5 µM | Activity [14]: 70.81% | Activity [15]: 39.12% | GI50 [31]: 3.42 µM | TGI [31]: 21.6 µM | CC50 [31]: > 100 µM | Activity [16]: 74.31% | Activity [17]: 54.29% | Activity [18]: 47.55% | GI50 [32]: 1.85 µM | TGI [32]: 6.02 µM | CC50 [32]: 26.3 µM | GI50 [33]: 3.13 µM | LC50 (lethal concentration, 50% net cell kill) [33]: 41.4 µM | TGI [33]: 13 µM | GI50 [34]: 2.71 µM | TGI [34]: 7.73 µM | CC50 [34]: 38.9 µM | Activity [19]: 54% | Activity [20]: 36.61% | GI50 [35]: 2.89 µM | LC50 [35]: 82.1 µM | TGI [35]: 11 µM | GI50 [36]: 10.1 µM | LC50 (concentration killing 50% of cells) [36]: 75.5 µM | TGI [36]: 27.6 µM
